Measured values from US5136090A, “Biphenyl-5,5'-bis-alkanoic acid derivatives, their production and aldose reductase inhibitors containing the same” (Toyo Jozo Kabushiki Kaisha, priority 1990, dated 1992).

How the values were obtained:
[1] = target: T1, partially purified bovine lens aldose reductase (Bos taurus, UniProt P16116); assay: Inhibitory activity on aldose reductase enzyme reaction; type: biochemical; details: for inhibition at 0.1 µg/mL: concentration 0.1 μg/ml; for inhibition at 1 µg/mL: concentration 1.0 μg/ml
T1 construct: partially purified bovine lens aldose reductase; from tissue; host or cells: bovine lens
Procedure: The preparation of aldose reductase and the determination of its inhibitory action on enzyme reaction activity were carried out pursuant to the procedures disclosed by Haymann et al. in Journal of Biological Chemistry, 240, 877 (1965).
The sample solution to be examined for inhibitory activity was prepared by dissolving a compound of formula (I) according to the present invention in a small amount of methanol and increasing the volume of the resulting methanol solution by diluting it with distilled water up to tenfold volume. A partially purified bovine lens aldose reductase was used for the assay.
To 2.4 ml of a solution of 5×10^-5 M NADPH dissolved in a 2/15M phosphate buffer solution (pH 6.0), 0.4 ml of the enzyme solution (15 m units/ml) and 0.1 ml of the sample solution to be examined were added and the mixture was introduced into a quartz cell in a photoelectric photometer and subjected to pre-incubation at 37° C. for 4 mins. Then, 0.1 ml of a 0.015M D,L-glyceraldehyde solution was added thereto for initiating the enzyme reaction and the decrease in the optical absorption at 340 nm was measured at 37° C. for 4 mins. The inhibitory activity on aldose reductase was calculated by the following equation: [formula] in which A represents the enzyme reaction rate with addition of the inhibitor and B denotes the enzyme reaction rate without addition of the inhibitor.

[2] = tested on: Lens; assay: Suppression of sorbitol accumulation in cultured lens; type: cell-based, Wistar rats; details: rat lens cultured 20 hours with 0.9% glucose; for inhibition at 5 µg/mL: concentration 5 μg/ml; for inhibition at 2.5 µg/mL: concentration 2.5 μg/ml
Procedure: (§1) Lenses and sciatic nerves extirpated from Wistar rats, male, aged 7 weeks, were washed twice with an aseptic buffer solution consisting of 0.3% trisaminomethane, 0.8% NaCl, 0.038% KCl, 0.025% Na2 HPO4 ·12H2 O, 0.1% glucose and 1.85 ml/l of concentrated HCl.
(§2) The lenses and the sciatic nerves were then preincubated for 30 mins. in a culture medium prepared by adding 2 ml of 7.5% NaHCO3 aseptic solution and 5.5 ml of aseptic calf fetus serum to 100 ml of an aseptic culture medium of 0.98% TC Medium 199 (NISSUI Corp.) containing 0.01% of dihydrostreptomycin and 0.01% of benzylpenicillin. Thereafter, the intrinsic culture was effected in a culture medium prepared by adding each sample solution to be examined and 0.9% of glucose to the abovementioned culture medium and permitting culturing to proceed for 20 hours. The incubation was effected at 37° C. in an atmosphere composed of 95% air and 5% CO2.
(§3) After culturing, the cultured samples of lens and sciatic nerve were removed from the culture medium to filter paper and the weight of each of them was measured after the adherent culture solution had been blown off. Then, each of the cultured samples was homogenized with the addition of 1 ml of a cold 8% HClO4 solution and the homogenized mixture was subjected to centrifugation at 10,000 G for 10 mins., whereby a supernatant was obtained. The resulting precipitate was then homogenized again with addition thereto of 0.5 ml of cold 8% HClO4 solution and the homogenized mixture was again subjected to centrifugation in a similar way as above to obtain a further supernatant. This was combined with the previously obtained supernatant and the resulting solution was neutralized with 2N KOH aq. solution and was supplemented with distilled water to a volume of 5 ml. The precipitate formed by neutralization was separated by centrifugation at 3,000 rpm for 10 mins. and the resulting supernatant was employed as the sample for determining the sorbitol content.
(§4) The determination of the sorbitol content in the lens and in the sciatic nerve was carried out in accordance with the method of Bergmeyer in "Methods of Enzymatic Analysis" edited by H. U. Bergmeyer, pp 1323-1326, Academic Press, New York, 1974 and in accordance with the method of Malaon et al. in "Diabetes" 29, 861-864 (1980).
(§5) To 0.5 ml cf the sample solution for determination of sorbitol content obtained as above, 0.9 ml of 0.1M glycine-KOH buffer solution (pH 9.4) containing 1 mM of NAD^+ and 0.1 ml of a solution of sorbitol dehydrogenase of 20 units/ml were added and the resulting mixture was subjected to incubation at 37° C. for 1 hour.
(§6) The content of sorbitol in each tissue was estimated by assuming the increment of the optical absorption at 340 nm to be proportional to the amount of NADH produced by the reaction for the lens and by detecting the fluorescence with an excitation wavelength of 366 nm and a fluorescence wavelength of 425 nm for the sciatic nerve.
(§7) The activity for suppressing accumulation of sorbitol, i.e. the aldose reductase inhibiting activity, was calculated from the determined sorbitol content by the calculation formula [formula] in which A denotes the content of sorbitol per unit weight of the tissue after cultivation with addition of the inhibitor, B denotes the sorbitol content per unit weight of the tissue after cultivation without addition of the inhibitor and C represents the sorbitol content per unit weight of the tissue after cultivation in the medium without addition of glucose and inhibitor.

[3] = tested on: Sciatic Nerve; assay: Suppression of sorbitol accumulation in cultured sciatic nerve; type: cell-based, Wistar rats; details: concentration 1.0 μg/ml, rat sciatic nerve cultured 20 hours with 0.9% glucose; for inhibition at 1 µg/mL: Rattus norvegicus, 20 h
Procedure: as §1, §2, §3, §4, §5, §6, §7

| Compound | inhibition at 0.1 µg/mL [1] [%] | inhibition at 1 µg/mL [1] [%] | inhibition at 5 µg/mL [2] [%] | inhibition at 1 µg/mL [3] [%] | inhibition at 2.5 µg/mL [2] [%] | Inhibition of sorbitol Accumulation (%) Sciatic Nerve [3] [%] | inhibition at 0.02 µg/mL ([1]; concentration 0.02 μg/ml) [%] |
| --- | --- | --- | --- | --- | --- | --- | --- |
| CCCCCCCCOc1ccc(CCC(=O)O)cc1-c1cc(CCC(=O)O)ccc1O [Example 10, 2-octyloxy-2'-hydroxy-5,5'-bis (2-carboxyethyl) biphenyl] | 67.4 | 93.7 | 37.7 | 33.6 | – | – | – |
| CCCOc1ccc(CCC(=O)O)cc1-c1cc(CCC(=O)O)ccc1O [Example 5, 2-propoxy-2'-hydroxy-5,5'-bis (2carboxyethyl) biphenyl] | 73.6 | 90 | 79.2 | 73.3 | 32.7 | 73.8 | – |
| CCOc1ccc(CCC(=O)O)cc1-c1cc(CCC(=O)O)ccc1O [Example 17, 2-ethoxy-2'-hydroxy-5,5'-bis (2-carboxyethyl) biphenyl] | 55 | – | – | 69.2 | 47.2 | – | 19.5 |
| O=C(O)CCc1ccc(O)c(-c2cc(CCC(=O)O)ccc2OCc2ccccc2)c1 [Example 1, 2-benzyloxy-2'-hydroxy-5,5'-bis (2carboxyethyl) biphenyl] | 60.8 | 92.8 | 69.9 | 64.6 | – | – | – |
